Results published in US9242977B2, “Trk-inhibiting compound” (ONO PHARMACEUTICAL CO., LTD., priority 2012, dated 2016).

What was measured:
[1] = target: c-Kit (Homo sapiens (Human), UniProt P10721); test: Enzyme inhibition activity test for kinases other than Trk (selectivity test): c-Kit; format: biochemical; settings: test concentration 3 μM; read-out: Inhibition Rate (%) c-Kit
Method: (§1) A test substance (present compound or comparative compound) was dissolved in dimethylsulfoxide and further diluted with dimethylsulfoxide to prepare a solution having a concentration of 100 times the test concentration of 3 μM. The solution was further diluted to 25-fold with an assay buffer (20 mM HEPES, 0.01% Triton X-100, 2 mM DTT, pH 7.5) to obtain a test substance solution. In a similar manner a positive control substance solution was prepared with a positive control substance.
(§2) A 4-times concentration solution (5 μL) of the test substance prepared with the assay buffer, 5 μL of a 4-times concentration solution of substrate/ATP/metal (Mg) and 10 μL of a 2-times concentration solution of kinase were mixed in a well of a polypropylene 384-well plate and allowed to react at room temperature for 1 hour. The reaction was terminated by adding 60 μL of a Termination Buffer (QuickScout Screening Assist MSA; Carna Biosciences). The substrate peptide and the phosphorylated peptide in the reaction solution were separated and quantified. The kinase reaction was assessed from the product ratio (P/(P+S)) calculated from the height (S) of the peak of the substrate peptide and the height (P) of the peak of the phosphorylated peptide. Other kinases used in the kinase selectivity experiments were, for example, Abl, c-Met, b-Raf, c-Kit and KDR. The following Table 2 indicates substrates, substrate concentrations, ATP concentrations and positive control substances used in respective kinase enzyme inhibition activity tests.
(§3) The inhibition rate was calculated from the average signal intensity of the test wells containing respective test substances provided that the average signal intensity of control wells each containing all reaction components was 0% inhibition and the average signal intensity of background wells (without addition of the enzyme) was 100% inhibition.

[2] = target: b-Raf (Homo sapiens (Human), UniProt P15056); test: Enzyme inhibition activity test for kinases other than Trk (selectivity test): b-Raf; format: biochemical; settings: test concentration 3 μM; read-out: Inhibition Rate (%) b-Raf
Method: as §1, §2, §3

[3] = system: NGF-induced vascular hyper permeability; test: Suppression of rat NGF-induced vascular hyper permeability (in vivo test, Evans Blue); settings: oral, 12 hours after administration, read-out: Rates of Suppression for Vascular Hyper Permeability (%)
Method: TrkA-inhibiting activity of the present compound was evaluated in vivo. The present compound dissolved in a medium was orally administered (adminstered volume: 5 mL/kg) to male CD(SD)IGS rats (7- to 9-week old, Charles River laboratories Japan, Inc.) shaved on the back. A medium was orally administered (adminstered volume: 5 mL/kg) to the control and normal groups. After 6 or 12 hours of administration, 3 μg/mL of a NGF (Mouse 2.5s, Natural, Invitrogen) solution prepared in 0.1% BSA (Sigma-Aldrich)-containing saline was intracutaneously administered (dose; 50 μL/site) at 3 sites on the back of animals under halothane anesthesia. For the normal group, 0.1% BSA-containing saline was intracutaneously administered (dose; 50 μL/site) at 3 sites on the back. Immediately after intracutaneous administration, 1% Evans Blue (Tokyo Chemical Industry Co., Ltd.) was administered intravenously from tail (adminstered volume: 3 mL/kg). After 10 minutes of administration, the animals were sacrificed by bleeding due to incision of the abdominal aorta. The sites of intracutaneous administration on the back (3 sites) were excised and the skin samples were respectively transferred to the wells in a 48-well plate (Asahi Glass Co., Ltd.). Formamide (0.8 mL/well) was added to the plate and the plate was sealed and incubated overnight at 60° C. The formamide extraction solution (200 μL) was transferred to a 96-well plate and the absorbance (wavelength: 620 nm) of Evans Blue extracted in formamide was measured on an absorbance microplate reader (SpectraMAX 190, Molecular Devices Japan, K.K.). Standard samples of Evans Blue dissolved in formamide (0, 0.78, 1.56, 3.13, 6.25, 12.5, 25 and 50 μg/mL) were measured at the same time for the absorbance (wavelength: 620 nm) to generate a calibration curve. Based on the calibration curve and the absorbances of samples, the concentrations of Evans Blue in the sample was calculated. The concentrations of Evans Blue for three skin samples collected from one aminal were averaged to obtain the vale for the animal. The rate of suppression for rat NGF-induced vascular hyper permeability of the present compound was calculated according to the following Equation 4: Suppression rate (%)=(1−(AX−AN)/(AC−AN)}×100 Equation 4
wherein AX: the concentration of Evans Blue of the test compound (an average value of 3 samples from one animal);
AN: the concentration of Evans Blue of the normal group (an average value of 3 samples from one animal);
AC: the concentration of Evans Blue of the control group (an average value of 3 samples from one animal).

[4] = target: Abl (Homo sapiens (Human), UniProt P00519); test: Enzyme inhibition activity test for kinases other than Trk (selectivity test): Abl; format: biochemical; settings: test concentration 3 μM; read-out: Inhibition Rate (%) Abl
Method: as §1, §2, §3

[5] = target: c-Met (Homo sapiens (Human), UniProt P08581); test: Enzyme inhibition activity test for kinases other than Trk (selectivity test): c-Met; format: biochemical; settings: test concentration 3 μM; read-out: Inhibition Rate (%) c-Met
Method: as §1, §2, §3

[6] = target: KDR (Homo sapiens (Human), UniProt P35968); test: Enzyme inhibition activity test for kinases other than Trk (selectivity test): KDR; format: biochemical; settings: test concentration 3 μM; read-out: Inhibition Rate (%) KDR
Method: as §1, §2, §3

[7] = target: TrkA (Homo sapiens (Human), UniProt P04629); test: TrkA kinase-inhibiting activity using human TrkA expressing cells (CellSenser TrkA-NFAT-bla CHO-K1, NGF-stimulated reporter assay); format: cell-based; settings: CHO-K1 cells expressing human TrkA and NFAT-bla; NGF 50 ng/ml; read-out: TrkA inhibitory activity (IC50; μM)
Method: TrkA kinase-inhibiting activity in cell systems was measured using CHO-K1 cells expressing human TrkA and NFAT-bla (CellSenser™ TrkA-NFAT-bla CHO-K1 cells, Invitrogen).
On the day before the assay, CellSenser™ TrkA-NFAT-bla CHO-K1 cells were suspended in an assay medium (Opti-MEM1 Reduced Serum Medium (Invitrogen) containing 0.5% dialysed fetal bovine serum (Invitrogen), 0.1 mM nonessential amino acids (Invitrogen), 1 mM sodium pyruvate (Invitrogen) and antibiotics (100 U/mL penicillin and 100 μg/mL streptomycin (Invitrogen)) and plated at a density of 2.4×10^4 cells/40 μL/well in a 96-well clear bottom plate (Corning, Catalogue No.: 3882). In some wells were added only the assay medium at 40 μL/well (Cell-free). On the day of the assay, 10 mM of the present compound (DMSO solution) was distributed in a 96-well plate (Costar, Catalogue No.: 3363) and serially diluted with DMSO with the geometrical ratio of 3. The serial dilutions were diluted with the assay medium to 100-fold to prepare a solution of the present compound with a 10-times concentration (DMSO concentration: 1%). To the plate where cells were plated was added the present compound at 5 μL/well and the plate was incubated in a CO2 incubator with 5% CO2, 95% Air at 37° C. for 30 minutes. For a control and a blank, the assay medium containing 1% DMSO was added at 5 μL/well in place of the solution of the present compound. Subsequently the assay medium containing NGF (Mouse 2.5s, Natural, Invitrogen) was added to the plate at 5 µL/well (final concentration of NGF: 50 ng/ml) and the plate was incubated in a CO2 incubator with 5% CO2, 95% Air at 37° C. for 5 hours. For a group of blanks, the assay medium was added in place of NGF at 5 μL/well. A reporter assay detection reagent (10 μL/well) was added to the plate and the plate was then incubated in the dark at room temperature for 120 minutes. The reporter assay detection reagent was prepared from LiveBLAzer™-FRET B/G Loading Kit (Invitrogen). On an Analyst GT (Molecular Devices Japan, K.K.) the wells were irradiated with excitation light at 405 nm and the fluorescence intensities at 460 nm and 530 nm were measured. The time resolved fluorescence resonance energy transfer (TR-FRET) ratio of each well was calculated according to the following Equation 2. TR-FRET Ratio=(A460X−A460F)/(A530X−A530F) Equation 2
wherein A460X: the fluorescence intensity at 460 nm of the present compound, control or blank;
A460F: the fluorescence intensity at 460 nm of the Cell-free;
A530X: the fluorescence intensity at 530 nm of the present compound, control or blank; and
A530F: the fluorescence intensity at 530 nm of the Cell-free. […]
The IC50 value of the present compound was calculated from the inhibition curve based on the inhibition rate of the present compound at respective concentrations.

Chain of TrkA (P04629 33-796): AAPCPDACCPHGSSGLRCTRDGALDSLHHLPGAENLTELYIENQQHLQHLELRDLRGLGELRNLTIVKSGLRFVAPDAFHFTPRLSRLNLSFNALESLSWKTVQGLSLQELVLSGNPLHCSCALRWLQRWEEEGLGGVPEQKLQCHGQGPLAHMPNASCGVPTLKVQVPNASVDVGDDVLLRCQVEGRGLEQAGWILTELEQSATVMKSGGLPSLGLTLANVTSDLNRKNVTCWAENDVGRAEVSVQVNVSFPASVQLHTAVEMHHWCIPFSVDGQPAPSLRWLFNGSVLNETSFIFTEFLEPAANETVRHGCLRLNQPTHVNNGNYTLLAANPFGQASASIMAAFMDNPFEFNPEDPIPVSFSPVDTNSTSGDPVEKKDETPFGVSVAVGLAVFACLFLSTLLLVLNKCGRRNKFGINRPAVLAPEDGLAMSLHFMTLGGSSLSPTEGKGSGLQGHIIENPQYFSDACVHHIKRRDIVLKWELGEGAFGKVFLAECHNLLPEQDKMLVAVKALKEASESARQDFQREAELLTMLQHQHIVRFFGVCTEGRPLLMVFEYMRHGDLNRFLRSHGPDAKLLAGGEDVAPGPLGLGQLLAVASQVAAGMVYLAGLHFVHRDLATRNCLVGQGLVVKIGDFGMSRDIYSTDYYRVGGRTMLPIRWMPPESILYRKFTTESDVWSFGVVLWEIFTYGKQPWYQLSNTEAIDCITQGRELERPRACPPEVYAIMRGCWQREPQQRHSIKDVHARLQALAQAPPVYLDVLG
Chain of KDR (P35968 20-1356): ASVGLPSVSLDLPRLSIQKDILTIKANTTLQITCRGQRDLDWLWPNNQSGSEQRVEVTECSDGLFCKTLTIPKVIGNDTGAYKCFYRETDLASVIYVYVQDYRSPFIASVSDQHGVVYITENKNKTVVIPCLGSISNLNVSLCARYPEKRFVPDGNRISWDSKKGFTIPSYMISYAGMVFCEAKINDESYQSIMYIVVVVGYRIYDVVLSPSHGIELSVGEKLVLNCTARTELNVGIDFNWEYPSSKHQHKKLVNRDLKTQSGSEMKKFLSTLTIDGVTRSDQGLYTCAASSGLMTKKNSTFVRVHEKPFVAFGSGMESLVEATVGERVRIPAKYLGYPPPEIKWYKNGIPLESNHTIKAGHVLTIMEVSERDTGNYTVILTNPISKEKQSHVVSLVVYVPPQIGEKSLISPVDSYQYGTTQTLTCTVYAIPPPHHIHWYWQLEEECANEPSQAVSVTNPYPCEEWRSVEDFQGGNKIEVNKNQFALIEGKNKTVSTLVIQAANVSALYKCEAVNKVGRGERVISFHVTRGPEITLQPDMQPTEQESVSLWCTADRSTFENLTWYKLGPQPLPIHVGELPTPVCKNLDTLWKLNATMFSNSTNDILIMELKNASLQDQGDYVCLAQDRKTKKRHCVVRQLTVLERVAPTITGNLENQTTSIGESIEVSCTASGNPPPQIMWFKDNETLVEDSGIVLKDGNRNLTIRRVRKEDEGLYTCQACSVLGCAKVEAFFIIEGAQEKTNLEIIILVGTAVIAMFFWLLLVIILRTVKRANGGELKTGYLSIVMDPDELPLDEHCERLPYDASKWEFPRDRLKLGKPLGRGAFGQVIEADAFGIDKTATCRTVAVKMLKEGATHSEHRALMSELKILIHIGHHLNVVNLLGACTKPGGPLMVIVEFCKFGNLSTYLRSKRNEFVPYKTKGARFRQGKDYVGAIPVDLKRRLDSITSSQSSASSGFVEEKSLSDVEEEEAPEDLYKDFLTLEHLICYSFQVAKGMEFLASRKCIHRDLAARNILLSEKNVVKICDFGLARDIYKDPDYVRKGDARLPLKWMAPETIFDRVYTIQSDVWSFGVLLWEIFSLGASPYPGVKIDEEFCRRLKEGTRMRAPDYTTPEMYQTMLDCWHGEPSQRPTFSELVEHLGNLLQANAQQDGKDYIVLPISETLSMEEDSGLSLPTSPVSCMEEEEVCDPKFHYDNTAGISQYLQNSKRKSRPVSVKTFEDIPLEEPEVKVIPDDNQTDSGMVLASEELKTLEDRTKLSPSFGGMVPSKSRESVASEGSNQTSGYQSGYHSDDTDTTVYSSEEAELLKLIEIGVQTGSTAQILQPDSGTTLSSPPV
Chain of Abl (P00519 whole entry): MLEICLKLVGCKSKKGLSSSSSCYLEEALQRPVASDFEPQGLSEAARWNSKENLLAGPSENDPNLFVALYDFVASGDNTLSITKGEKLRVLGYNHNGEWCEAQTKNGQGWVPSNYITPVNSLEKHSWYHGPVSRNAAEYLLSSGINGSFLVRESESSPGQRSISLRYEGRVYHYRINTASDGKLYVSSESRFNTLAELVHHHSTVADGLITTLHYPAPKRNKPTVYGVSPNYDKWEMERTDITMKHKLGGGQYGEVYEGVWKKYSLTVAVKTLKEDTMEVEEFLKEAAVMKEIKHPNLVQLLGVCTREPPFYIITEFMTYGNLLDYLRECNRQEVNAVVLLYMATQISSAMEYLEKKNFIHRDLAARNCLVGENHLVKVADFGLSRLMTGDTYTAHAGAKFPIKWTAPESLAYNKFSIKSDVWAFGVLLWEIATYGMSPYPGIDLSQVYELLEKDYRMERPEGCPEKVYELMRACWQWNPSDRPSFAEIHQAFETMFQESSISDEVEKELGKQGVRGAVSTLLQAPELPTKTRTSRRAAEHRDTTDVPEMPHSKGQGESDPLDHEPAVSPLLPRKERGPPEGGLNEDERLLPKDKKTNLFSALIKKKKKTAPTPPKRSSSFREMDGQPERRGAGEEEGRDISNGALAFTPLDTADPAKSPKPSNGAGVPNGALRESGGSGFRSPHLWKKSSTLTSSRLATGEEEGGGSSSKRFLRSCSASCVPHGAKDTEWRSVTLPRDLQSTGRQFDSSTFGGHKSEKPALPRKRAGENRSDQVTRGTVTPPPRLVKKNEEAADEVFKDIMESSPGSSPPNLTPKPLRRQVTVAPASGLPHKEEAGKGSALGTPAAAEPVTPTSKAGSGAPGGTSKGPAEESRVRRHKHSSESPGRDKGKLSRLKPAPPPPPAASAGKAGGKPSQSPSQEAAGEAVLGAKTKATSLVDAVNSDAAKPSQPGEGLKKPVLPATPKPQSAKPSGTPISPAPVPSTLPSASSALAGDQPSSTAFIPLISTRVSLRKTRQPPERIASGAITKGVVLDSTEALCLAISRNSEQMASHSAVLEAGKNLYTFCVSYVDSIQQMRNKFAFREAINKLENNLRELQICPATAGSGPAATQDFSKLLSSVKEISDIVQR
Chain of c-Met (P08581 25-1390): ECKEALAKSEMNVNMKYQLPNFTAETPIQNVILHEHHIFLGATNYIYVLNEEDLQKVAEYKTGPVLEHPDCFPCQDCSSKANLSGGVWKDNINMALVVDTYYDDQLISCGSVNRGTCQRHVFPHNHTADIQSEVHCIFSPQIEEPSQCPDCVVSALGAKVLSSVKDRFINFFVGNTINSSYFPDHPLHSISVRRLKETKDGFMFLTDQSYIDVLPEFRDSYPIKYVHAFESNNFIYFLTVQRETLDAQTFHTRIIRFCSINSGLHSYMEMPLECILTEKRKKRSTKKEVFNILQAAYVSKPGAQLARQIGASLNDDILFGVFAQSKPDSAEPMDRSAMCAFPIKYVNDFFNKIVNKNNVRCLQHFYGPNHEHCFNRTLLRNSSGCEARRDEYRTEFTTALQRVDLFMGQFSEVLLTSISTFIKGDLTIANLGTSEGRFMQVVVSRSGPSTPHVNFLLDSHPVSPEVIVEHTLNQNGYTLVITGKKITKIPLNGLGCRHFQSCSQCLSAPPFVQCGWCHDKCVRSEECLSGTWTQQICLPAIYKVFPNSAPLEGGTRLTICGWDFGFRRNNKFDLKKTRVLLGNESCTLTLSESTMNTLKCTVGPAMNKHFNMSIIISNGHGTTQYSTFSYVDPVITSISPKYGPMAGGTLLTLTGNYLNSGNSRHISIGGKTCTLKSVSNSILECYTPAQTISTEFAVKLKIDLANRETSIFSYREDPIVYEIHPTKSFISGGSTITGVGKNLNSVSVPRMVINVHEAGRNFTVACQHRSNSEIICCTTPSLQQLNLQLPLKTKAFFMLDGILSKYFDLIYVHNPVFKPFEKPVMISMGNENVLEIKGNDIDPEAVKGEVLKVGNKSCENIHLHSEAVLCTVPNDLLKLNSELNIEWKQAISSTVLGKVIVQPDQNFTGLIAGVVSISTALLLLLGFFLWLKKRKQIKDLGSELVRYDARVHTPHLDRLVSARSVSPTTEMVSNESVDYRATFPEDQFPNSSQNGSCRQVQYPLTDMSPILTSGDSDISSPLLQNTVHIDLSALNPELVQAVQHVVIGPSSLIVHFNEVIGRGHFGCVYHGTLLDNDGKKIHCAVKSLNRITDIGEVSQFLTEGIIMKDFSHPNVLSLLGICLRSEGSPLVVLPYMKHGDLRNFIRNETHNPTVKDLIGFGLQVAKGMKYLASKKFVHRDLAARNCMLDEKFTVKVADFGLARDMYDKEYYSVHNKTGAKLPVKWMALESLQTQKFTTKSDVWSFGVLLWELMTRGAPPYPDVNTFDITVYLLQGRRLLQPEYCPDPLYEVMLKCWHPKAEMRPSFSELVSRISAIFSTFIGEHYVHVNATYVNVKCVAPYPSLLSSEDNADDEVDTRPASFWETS

Row | SMILES | inhibition at 3 µM [1] | inhibition at 3 µM [2] | inhibition at 3 µM [4] | inhibition at 3 µM [5] | inhibition at 3 µM [6] | IC50 [7] | inhibition in vivo at 1 mg/kg [3]
1 | CCCNc1ncc(-c2ccc(Oc3ncc(NC(=O)Nc4cc(C(F)(F)F)ccc4S(C)(=O)=O)cn3)cc2)s1 [Example 85-226, 1-[2-(methylsulfonyl)-5-(trifluoromethyl)phenyl]-3-(2-{4-[2-(propylamino)-1,3-thiazol-5-yl]phenoxy}-5-pyrimidinyl)urea] |  |  |  |  |  | 0.001 µM | 100%
2 | CCCNc1ncc(-c2ccc(Oc3ncc(NC(=O)Nc4cc(C(F)(F)F)ccc4-n4ccc(C(F)(F)F)n4)cn3)cc2)s1 [Example 85-184, 1-(2-{4-[2-(propylamino)-1,3-thiazol-5-yl]phenoxy}-5-pyrimidinyl)-3-{5-(trifluoromethyl)-2-[3-(trifluoromethyl)-1H-pyrazol-1-yl]phenyl}urea] |  |  |  |  |  | 0.002 µM | 96%
3 | CCCNc1ncc(-c2ccc(Oc3ncc(NC(=O)Nc4cc(F)ccc4F)cn3)cc2)s1 [Example 85-209, 1-(2,5-difluorophenyl)-3-(2-{4-[2-(propylamino)-1,3-thiazol-5-yl]phenoxy}-5-pyrimidinyl)urea] |  |  |  |  |  | 0.004 µM | 81%

More lines, main results first:

Row | inhibition at 3 µM [1] | inhibition at 3 µM [2] | inhibition at 3 µM [4] | inhibition at 3 µM [5] | inhibition at 3 µM [6] | IC50 [7] | SMILES | inhibition in vivo at 1 mg/kg [3]
4 | 28% | 36% | 5.6% | 11% | 5.2% |  | O=C(Nc1cnc(Oc2ccc(-c3cnc(N4CCCC4=O)s3)cc2)nc1)Nc1cc(C(F)(F)F)ccc1-c1cccnc1 [Example 84-3, 1-(2-{4-[2-(2-oxo-1-pyrrolidinyl)-1,3-thiazol-5-yl]phenoxy}-5-pyrimidinyl)-3-[2-(3-pyridinyl)-5-(trifluoromethyl)phenyl]urea] | 94%
5 |  |  |  |  |  | 0.004 µM | CCCNc1ncc(-c2ccc(Oc3ncc(NC(=O)Nc4cc(C(F)(F)F)ccc4S(=O)(=O)N(C)C)cn3)cc2)s1 [Example 85-225, N,N-dimethyl-2-{[(2-{4-[2-(propylamino)-1,3-thiazol-5-yl]phenoxy}-5-pyrimidinyl)carbamoyl]amino}-4-(trifluoromethyl)benzenesulfonamide] | 94%
